{
  "source": "patent US5342925A",
  "about": "“Radioactive compositions for soft tissue tumors” (priority 1991, dated 1994)",
  "key": {"[1]": {"test": "Whole body retention (whole body counts after I.V. injection) in miniature pigs with melanotic lesions", "assay_type": "in vivo", "conditions": "for % Whole Body Retention (24 hrs.): I.V., 1-2 mCi 153Sm, % = percentage of injected dose", "experimental": "(§1) Images (right lateral, left lateral and dorsal) were made at 4, 24, 48 and 72 hours."}, "[2]": {"test": "Bone and liver uptake scored from scintigraphic images of miniature pigs with melanotic lesions", "assay_type": "in vivo", "experimental": "as §1\n(§2) 1--Slight uptake (negligible)\n(§3) 2--Moderate uptake (intermediate )\n(§4) 3--Definite uptake (high)\n(§5) The average of the 3 investigators independent scores were used in the following table."}, "[3]": {"tested_on": "naturally occurring melanotic lesions", "test": "Tumor uptake scored from images of miniature pigs with naturally occurring melanotic lesions", "assay_type": "in vivo", "conditions": "24 hour images, average score of 3 investigators, scale 0-3", "experimental": "as §1, §2, §3, §4, §5"}, "[4]": {"conditions": "in vivo; cited from earlier work"}, "Ehrlich tumors": {"tested_on": "Ehrlich tumors", "conditions": "experimental animals bearing Ehrlich tumors; cited from earlier work"}, "[5]": {"conditions": "24 hour images, average score of 3 investigators, scale 0-3"}, "[6]": {"conditions": "Comparative Example A, in words"}},
  "note": "Several values for one entry are separate records, joined by “and”; a condition that tells them apart may be missing. Equal entries are not always repeated.",
  "data": [
    {"molecule": "CC(=O)Nc1cc(CN(CC(=O)O)CC(=O)O)c(O)c(CN(CC(=O)O)CC(=O)O)c1.[153Sm+3]", "note": "[Example 1]", "values": [
      {"measurement": "% Whole Body Retention (24 hrs.)", "setting": "[1]", "value": "29.5% and 40.1%"},
      {"measurement": "Bone Uptake", "setting": "[2]; [5]", "value": 3.00},
      {"measurement": "Liver Uptake", "setting": "[2]; [5]", "value": 0.67},
      {"measurement": "Tumor Uptake (Dorsal neck)", "setting": "[3]", "value": 3.00},
      {"measurement": "Tumor Uptake (Left stifle)", "setting": "[3]", "value": 2.00},
      {"measurement": "Tumor Uptake (Right head)", "setting": "[3]", "value": 0.67},
      {"measurement": "Tumor Uptake (Right thorax)", "setting": "[3]", "value": 2.00}
    ]},
    {"molecule": "CC(=O)Nc1ccc(O)c(CN(CC(=O)O)CC(=O)O)c1.[153Sm+3]", "note": "[Example 2]", "values": [
      {"measurement": "% Whole Body Retention (24 hrs.)", "setting": "[1]", "value": "60.7% and 46.6%"},
      {"measurement": "Bone Uptake", "setting": "[2]; [5]", "value": "1.33 and 2.33"},
      {"measurement": "Liver Uptake", "setting": "[2]; [5]", "value": "2.00 and 1.00"},
      {"measurement": "Tumor Uptake (Dorsal neck)", "setting": "[3]", "value": 3.00},
      {"measurement": "Tumor Uptake (Left stifle)", "setting": "[3]", "value": 2.00},
      {"measurement": "Tumor Uptake (Right head)", "setting": "[3]", "value": 0.00},
      {"measurement": "Tumor Uptake (Right thorax)", "setting": "[3]", "value": 0.00},
      {"measurement": "Tumor Uptake (draining node)", "setting": "[3]; draining node", "value": 0.00}
    ]},
    {"molecule": "CC(=O)Nc1cc(CN(CC(=O)O)CC(=O)O)c(O)c(CN(CC(=O)O)CC(=O)O)c1.[153Sm+3]", "note": "[Example 3]", "values": [
      {"measurement": "% Whole Body Retention (24 hrs.)", "setting": "[1]", "value": "42.9% and 37.1%"},
      {"measurement": "Tumor Uptake (Left sacrum)", "setting": "[3]; Left sacrum", "value": 3.00},
      {"measurement": "Tumor Uptake (Right nasal)", "setting": "[3]; Right nasal", "value": 2.00},
      {"measurement": "Tumor Uptake (Right stifle)", "setting": "[3]; Right stifle", "value": 0.00}
    ]},
    {"molecule": "CC(=O)Nc1cc(CN(CC(=O)O)CC(=O)O)c(O)c(CN(CC(=O)O)CC(=O)O)c1.[153Sm+3]", "note": "[Example 4]", "values": [
      {"measurement": "% Whole Body Retention (24 hrs.)", "setting": "[1]", "value": "55.2% and 48.2%"},
      {"measurement": "Bone Uptake", "setting": "[2]; [5]", "value": 1.67},
      {"measurement": "Liver Uptake", "setting": "[2]; [5]", "value": "3.00 and 2.00"},
      {"measurement": "Tumor Uptake (Left carpus)", "setting": "[3]; Left carpus", "value": 0.00},
      {"measurement": "Tumor Uptake (Left stifle)", "setting": "[3]", "value": 0.00},
      {"measurement": "Tumor Uptake (Right ear)", "setting": "[3]; Right ear", "value": 2.00}
    ]},
    {"molecule": "O=C([O-])CC(O)(CC(=O)[O-])C(=O)[O-].[67Ga+3]", "note": "[^67 Ga-citrate, reference compound]", "values": [
      {"measurement": "clearance from extracellular fluid", "setting": "[1]; [6]", "value": "never cleared the extracellular fluid"},
      {"measurement": "Liver Uptake", "setting": "[2]; [6]", "value": "unacceptably large liver uptake"}
    ]},
    {"molecule": "O=C([O-])CN(CCN(CC(=O)[O-])CC(=O)[O-])CCN(CC(=O)[O-])CC(=O)[O-].[99Tc+4]", "note": "[^99m Tc-DTPA]", "values": [
      {"measurement": "elimination route", "setting": "[4]", "value": "eliminated from the body by the kidneys into the urine"},
      {"measurement": "tissue localization", "setting": "[4]", "value": "does not result in the radionuclide localizing in any tissue"}
    ]},
    {"molecule": "O=C(O)CN(CCN(CC(=O)O)CC(=O)O)CC(=O)O", "note": "[ethylenediaminetetraacetic acid (EDTA), ethylenediaminetetraacetic acid]", "values": [
      {"measurement": "tumor imaging", "setting": "Ehrlich tumors", "value": "less effective"}
    ]},
    {"molecule": "O=C(O)CN(CCO)CCN(CC(=O)O)CC(=O)O", "note": "[hydroxyethylethylenediaminetriacetic acid]", "values": [
      {"measurement": "tumor imaging", "setting": "Ehrlich tumors", "value": "less effective"}
    ]},
    {"molecule": "O=C(O)CNCC(=O)O", "note": "[iminodiacetic acid (IDA), iminodiacetic acid]", "values": [
      {"measurement": "tumor imaging", "setting": "Ehrlich tumors", "value": "less effective"}
    ]},
    {"molecule": "CN(CC(=O)O)CC(=O)O", "note": "[methyliminodiacetic acid (MIDA), methyliminodiacetic acid]", "values": [
      {"measurement": "tumor imaging", "setting": "Ehrlich tumors", "value": "less effective"}
    ]},
    {"molecule": "O=C(O)CN(CC(=O)O)CC(=O)O", "note": "[nitrilotriacetic acid (NTA), nitrilotriacetic acid]", "values": [
      {"measurement": "tumor imaging", "setting": "Ehrlich tumors", "value": "less effective"}
    ]},
    {"molecule": "^99m Tc-ethylenediaminediacetic acid", "values": [
      {"measurement": "tumor imaging", "setting": "Ehrlich tumors", "value": "could be used to image tumors"}
    ]}
  ]
}
